Assay results as given in ChEMBL document CHEMBL1149010, “A comparative study on anti-inflammatory activities of the enantiomers, shikonin and alkannin” (1986).

Experiments:
Type in all cases: functional
Rattus norvegicus [1] = assay: Antiinflammatory activity against thermal injury-induced edema in Wistar rat skin assessed as inhibition of edema at 50 ug treated topically relative to control; parameters: scale not given: the % may be the effect or the level left
Rattus norvegicus [2] = assay: Decrease in histamine-induced capillary permeability in Wistar rat assessed as inhibition of pontamine sky blue 6BX dye leakage at 50 ug treated topically relative to control
Rattus norvegicus [3] = assay: Decrease in histamine-induced capillary permeability in Wistar rat assessed as inhibition of pontamine sky blue 6BX dye leakage at 100 ug treated topically relative to control
Rattus norvegicus [4] = assay: Antiinflammatory activity against thermal injury-induced edema in Wistar rat skin assessed as inhibition of edema at 100 ug treated topically relative to control; parameters: scale not given: the % may be the effect or the level left

Structure (SMILES)	Activity (Rattus norvegicus [1]) [%]	inhibition (INH) (Rattus norvegicus [2]) [%]	inhibition (INH) (Rattus norvegicus [3]) [%]	Activity (Rattus norvegicus [4]) [%]
CCCCC1C(=O)N(c2ccccc2)N(c2ccccc2)C1=O [PHENYLBUTAZONE]	38.9			
CC(C)=CC[C@@H](O)C1=CC(=O)c2c(O)ccc(O)c2C1=O (stereo in doubt; form 1) [SHIKONIN]	22	13.7	22.3	20.6
CC(C)=CC[C@H](O)C1=CC(=O)c2c(O)ccc(O)c2C1=O [ALKANNIN]	21.3	7.9	21.3	21.7
CC(C)=CC[C@@H](O)C1=CC(=O)c2c(O)ccc(O)c2C1=O (stereo in doubt; form 2) [SHIKONIN]	26.7			23.2
